According to paper PMC2880318 (Immunome Research, 2010):
Where a SMILES comes first, the peptide text is derived from it.

target: purified HLA-DRB1*0101 (Homo sapiens, UniProt P01903+P01911, A100R/D57E/F55L/F60I/F76Y/I96L/L162R/M171V/P40L/Q125E/R42F/V115G/Y59C); test: biochemical; format: binding

How did the IC50 turn out when CC[C@H](C)[C@H](NC(=O)CNC(=O)[C@@H](NC(=O)[C@H](CC(C)C)NC(=O)[C@H](Cc1c[nH]cn1)NC(=O)[C@H](CC(C)C)NC(=O)[C@H](Cc1ccccc1)NC(=O)[C@H](CC(C)C)NC(=O)[C@H](CO)NC(=O)[C@H](C)N)C(C)C)C(=O)N1CCC[C@H]1C(=O)N[C@H](C(=O)N[C@@H](Cc1c[nH]cn1)C(=O)N[C@@H](CCCNC(=N)N)C(=O)N[C@@H](Cc1c[nH]cn1)C(=O)O)[C@@H](C)O [MACV GPC446-460] was run?
The IC50 was 0.13 nM.

With CC[C@H](C)[C@H](NC(=O)[C@H](CC(C)C)NC(=O)[C@H](Cc1c[nH]cn1)NC(=O)[C@H](CC(=O)O)NC(=O)[C@H](CO)NC(=O)[C@H](CCC(=O)O)NC(=O)[C@H](CC(C)C)NC(=O)[C@H](CC(C)C)NC(=O)[C@H](Cc1c[nH]c2ccccc12)NC(=O)[C@H](CCC(N)=O)NC(=O)[C@H](CC(N)=O)NC(=O)[C@H](CCCNC(=N)N)NC(=O)[C@@H](N)Cc1ccccc1)C(=O)N[C@@H](CO)C(=O)N[C@@H](CCC(=O)O)C(=O)O [WWAV GPC386-400] (H-FRNQWLLESDHLISE-OH) as the compound, how does the IC50 read?
The IC50 was 1.6 nM.

With CC[C@H](C)[C@H](NC(=O)[C@H](CC(=O)O)NC(=O)[C@H](CC(N)=O)NC(=O)[C@H](Cc1ccccc1)NC(=O)[C@@H](NC(=O)[C@H](CCCCN)NC(=O)[C@H](CCCNC(=N)N)NC(=O)[C@H](C)NC(=O)[C@H](CS)NC(=O)[C@H](CC(N)=O)NC(=O)[C@H](CCCNC(=N)N)NC(=O)[C@@H](NC(=O)[C@H](Cc1ccccc1)NC(=O)[C@H](CO)NC(=O)[C@@H](N)[C@@H](C)O)[C@@H](C)CC)C(C)C)C(=O)O [MACV L1491-1505] as the compound, how does the IC50 read?
Its IC50 is 0.11 nM.

CC(C)[C@H](NC(=O)[C@H](C)NC(=O)[C@H](Cc1c[nH]c2ccccc12)NC(=O)[C@H](Cc1ccccc1)NC(=O)[C@H](Cc1ccccc1)NC(=O)[C@H](CC(N)=O)NC(=O)[C@H](CCC(N)=O)NC(=O)[C@H](CC(N)=O)NC(=O)[C@@H](N)CC(N)=O)C(=O)N[C@@H](CCCCN)C(=O)N1CCC[C@H]1C(=O)N[C@@H](CCCCN)C(=O)N[C@H](C(=O)N[C@H](C(=O)N[C@@H](CCCNC(=N)N)C(=O)O)C(C)C)C(C)C [MACV L1711-1725] was tested. Which IC50 did it give?
The IC50 was 1.7 nM.

For CC(C)C[C@H](NC(=O)[C@H](Cc1ccccc1)NC(=O)[C@H](CC(C)C)NC(=O)[C@@H](NC(=O)[C@@H](NC(=O)[C@@H](NC(=O)[C@@H](N)Cc1ccccc1)[C@@H](C)O)[C@@H](C)O)[C@@H](C)O)C(=O)N[C@@H](Cc1c[nH]cn1)C(=O)N[C@@H](CC(C)C)C(=O)N[C@H](C(=O)NCC(=O)N[C@@H](Cc1ccccc1)C(=O)N1CCC[C@H]1C(=O)N[C@H](C(=O)N[C@@H](Cc1c[nH]cn1)C(=O)O)[C@@H](C)O)C(C)C [SABV GPC436-450] (H-FTTTLFLHLVGFPTH-OH), which IC50 is on record?
The IC50 was 0.92 nM.

For CC[C@H](C)[C@H](NC(=O)[C@H](CC(C)C)NC(=O)[C@H](CCCCN)NC(=O)[C@@H](NC(=O)[C@H](C)NC(=O)[C@H](CCC(=O)O)NC(=O)[C@H](CC(C)C)NC(=O)[C@@H](NC(=O)[C@H](CC(=O)O)NC(=O)[C@H](CC(C)C)NC(=O)[C@@H](NC(=O)[C@H](CCCNC(=N)N)NC(=O)[C@@H](N)CC(=O)O)C(C)C)[C@@H](C)CC)C(C)C)C(=O)N[C@@H](CCCNC(=N)N)C(=O)N[C@@H](CCCCN)C(=O)O [MACV L391-405] (H-DRVLDILEAVKLIRK-OH), which IC50 is on record?
Its IC50 is 0.48 nM.

With CC[C@H](C)[C@H](NC(=O)[C@H](CC(=O)O)NC(=O)[C@H](CC(C)C)NC(=O)[C@H](CC(C)C)NC(=O)[C@H](CCCNC(=N)N)NC(=O)[C@H](CC(=O)O)NC(=O)[C@H](CC(N)=O)NC(=O)[C@@H](NC(=O)[C@H](CC(C)C)NC(=O)[C@H](CCSC)NC(=O)[C@H](CC(C)C)NC(=O)[C@H](CCSC)NC(=O)[C@H](CCC(N)=O)NC(=O)CNC(=O)[C@@H](N)C(C)C)C(C)C)C(=O)O [JUNV L381-395] as the compound, how does the IC50 read?
The IC50 was 0.21 nM.
